Key:
Venetoclax + Vorinostat = compound: CC1(C)CCC(CN2CCN(c3ccc(C(=O)NS(=O)(=O)c4ccc(NCC5CCOCC5)c([N+](=O)[O-])c4)c(Oc4cnc5[nH]ccc5c4)c3)CC2)=C(c2ccc(Cl)cc2)C1 [Venetoclax] + O=C(CCCCCCC(=O)Nc1ccccc1)NO [Vorinostat] (partner 1 µM); experiment: relative viability (nuclei count vs DMSO), 5 days (fraction); higher = more cells survive
How it was run: (§1)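 One day after seeding in 1536-well plates, lung cancer cell lines were dosed by pin tool. Dosing was either single-drug or a fixed anchor-drug dose plus five library-drug doses (not always all listed) in √10 steps. After 5 days, nuclei were stained in one fix-and-stain step and counted on 4× images, and relative viability is the nuclei count of treated wells over that of vehicle wells, given as the median of duplicate plates.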

Venetoclax + AZD7762 = compound: CC1(C)CCC(CN2CCN(c3ccc(C(=O)NS(=O)(=O)c4ccc(NCC5CCOCC5)c([N+](=O)[O-])c4)c(Oc4cnc5[nH]ccc5c4)c3)CC2)=C(c2ccc(Cl)cc2)C1 [Venetoclax] + NC(=O)Nc1cc(-c2cccc(F)c2)sc1C(=O)N[C@H]1CCCNC1 [AZD7762] (partner 0.2 µM); experiment: as above
How it was run: as §1

Row | Cell Line | relative viability (Venetoclax + Vorinostat; first compound 0.01 µM) | relative viability (Venetoclax + Vorinostat; first compound 0.03162 µM) | relative viability (Venetoclax + Vorinostat; first compound 0.1 µM) | relative viability (Venetoclax + Vorinostat; first compound 0.3162 µM) | relative viability (Venetoclax + Vorinostat; first compound 1 µM) | relative viability (Venetoclax + AZD7762; first compound 0.01 µM) | relative viability (Venetoclax + AZD7762; first compound 0.03162 µM) | relative viability (Venetoclax + AZD7762; first compound 0.1 µM) | relative viability (Venetoclax + AZD7762; first compound 0.3162 µM) | relative viability (Venetoclax + AZD7762; first compound 1 µM)
1 | NCI-H650 | 0.42 | 0.413 | 0.471 | 0.462 | 0.391 | 0.986 | 1.1 | 0.872 | 1.22 | 0.899
2 | A-427 | 0.834 | 0.863 | 0.857 | 0.849 | 0.879 | 0.752 | 0.762 | 0.674 | 0.784 | 0.709
3 | EMC-BAC-2 | 0.465 | 0.783 | 0.352 | 0.672 | 0.417 | 1.11 | 1.15 | 1.07 | 1.08 | 1.03
4 | NCI-H520 | 0.761 | 0.75 | – | 0.668 | 0.733 | – | – | – | – | –
5 | LOU-NH91 | 0.868 | 1.05 | 0.916 | 1.03 | 0.874 | 0.766 | 0.8 | 0.723 | 0.777 | 0.63
6 | HOP-62 | 0.578 | 0.572 | 0.552 | 0.667 | 0.568 | 0.486 | 0.841 | 0.522 | 0.726 | 0.494
7 | NCI-H1792 | – | – | – | – | – | 0.58 | 0.698 | 0.703 | 0.608 | 0.565
8 | HCC-15 | 0.8 | 0.799 | 0.812 | 0.841 | 0.853 | 1.29 | 1.28 | 1.15 | 1.16 | 1.36
9 | HCC-366 | 0.311 | 0.395 | 0.273 | 0.346 | 0.312 | 0.332 | 0.202 | 0.214 | 0.25 | 0.141
10 | LU99A | 0.595 | 0.703 | 0.416 | 0.521 | 0.552 | 0.343 | 0.391 | 0.251 | 0.367 | 0.307
11 | SW 1573 | 0.712 | 0.656 | 0.643 | 0.692 | 0.572 | – | – | – | – | –
12 | NCI-H1703 | – | – | – | – | – | 0.157 | 0.136 | 0.122 | 0.129 | 0.124
13 | NCI-H2170 | 0.685 | 0.763 | 0.682 | 0.804 | 0.742 | 0.735 | 0.805 | 0.692 | 0.806 | 0.763
14 | NCI-H2087 | 0.606 | 0.824 | 0.881 | 0.799 | 0.953 | 1.26 | 1.32 | 1.17 | 1.46 | 1.56
15 | LCLC-103H | 0.866 | 0.92 | 0.648 | 0.825 | 0.737 | 0.837 | 0.737 | 0.809 | 0.817 | 0.734
16 | NCI-H1755 | 0.751 | 0.801 | 0.774 | 0.739 | 0.741 | 0.445 | 0.471 | 0.379 | 0.386 | 0.411
17 | NCI-H1650 | 0.618 | 0.606 | 0.567 | 0.553 | 0.527 | – | – | – | – | –
18 | HARA | 0.568 | 0.605 | 0.554 | 0.512 | 0.4 | 0.299 | 0.214 | – | 0.25 | 0.285

Row | Cell Line | relative viability (Venetoclax + Vorinostat; first compound 0.01 µM) | relative viability (Venetoclax + Vorinostat; first compound 0.03162 µM) | relative viability (Venetoclax + Vorinostat; first compound 0.1 µM) | relative viability (Venetoclax + Vorinostat; first compound 0.3162 µM) | relative viability (Venetoclax + Vorinostat; first compound 1 µM) | relative viability (Venetoclax + AZD7762; first compound 0.01 µM) | relative viability (Venetoclax + AZD7762; first compound 0.03162 µM) | relative viability (Venetoclax + AZD7762; first compound 0.1 µM) | relative viability (Venetoclax + AZD7762; first compound 0.3162 µM) | relative viability (Venetoclax + AZD7762; first compound 1 µM)
19 | NCI-H1975 | 0.692 | 0.678 | 0.743 | 0.688 | 0.72 | 0.737 | 0.709 | 0.672 | 0.822 | 0.67
20 | SK-MES-1 | 1.01 | 1.1 | 1.06 | 1.08 | 0.966 | – | – | – | – | –
21 | NCI-H1666 | 0.997 | 1.05 | 1.07 | 1.02 | 1.07 | 0.915 | 0.849 | 0.715 | 0.839 | 0.803
22 | NCI-H2228 | 0.915 | 0.623 | 0.799 | 0.461 | 0.436 | – | – | – | – | –
23 | HCC-44 | 1.05 | 1.14 | 1.08 | 1.1 | 1 | 1.01 | 0.99 | 1.04 | 0.929 | 0.924
24 | PC-14 | 0.642 | 0.788 | 0.822 | 0.692 | 0.641 | 0.346 | 0.361 | 0.315 | 0.413 | 0.301
25 | NCI-H661 | 0.741 | 0.804 | 0.692 | 0.893 | 0.722 | – | – | – | – | –
26 | HCC-827 | 0.848 | 0.958 | 0.83 | 0.892 | 0.755 | 0.27 | 0.258 | 0.302 | 0.224 | 0.183
27 | NCI-H1915 | 0.49 | 0.533 | 0.478 | 0.54 | 0.512 | 0.657 | 0.658 | 0.655 | 0.695 | 0.611
28 | NCI-H441 | 0.78 | 0.762 | 1.02 | 0.868 | 0.743 | 1.14 | 1.27 | 1.05 | 1.4 | 1.09
29 | NCI-H2342 | 0.667 | 0.823 | 0.739 | 0.683 | 0.802 | 0.734 | 0.75 | 0.491 | 0.388 | 0.53
30 | RERF-LC-KJ | 0.587 | 0.701 | 0.682 | 0.686 | 0.718 | 0.801 | 1.09 | 1.07 | 1.03 | 0.945
31 | SW 900 | 0.485 | 0.663 | 0.545 | 0.617 | 0.486 | 0.538 | 0.696 | 0.59 | 0.715 | 0.668
32 | NCI-H3122 | 1.11 | 0.881 | 0.802 | 0.916 | 0.885 | 1.07 | 0.997 | 0.909 | 0.954 | 1.03
33 | NCI-H2347 | 0.574 | 0.753 | 0.461 | 0.593 | 0.591 | 0.729 | 0.894 | 0.663 | 0.723 | 0.76
34 | NCI-H1651 | 0.566 | 0.585 | 0.577 | 0.497 | 0.599 | 0.505 | 0.481 | 0.486 | 0.428 | 0.386
35 | NCI-H1793 | 0.685 | 0.958 | 0.703 | 0.801 | 0.623 | 0.638 | 0.441 | 0.346 | 0.299 | 0.259
36 | EKVX | 0.618 | 0.838 | 0.602 | 0.771 | 0.592 | 0.698 | 0.766 | 0.743 | 0.695 | 0.671

Source: the supplement of paper PMC10307832
